Laboratory results as given in US4663329A, “Thienopyridinone derivatives and anti-bacterial compositions containing them” (Sanofi, priority 1984, dated 1987).
In brackets after ≈: the same amount, converted by molar mass. Read-outs that look alike come from different tables or passages of the source.

Key:
Format in all cases: cell-based
[1] = test system: Staphylococcus aureus 53154 IP; assay: In vitro antibacterial activity, MIC, Staphylococcus aureus 53154 IP; conditions: Staphylococcus aureus 53154 IP, 37° C., pH=7.4, inoculum 10^4
Experimental: (§1) Tests carried out in vitro in accordance with the experimental procedure described hereunder have provided evidence of the antibacterial activity in question.
(§2) For this purpose, the M.I.C. were determined i.e. the minimal inhibiting concentrations of the compound under study acting on the growth of the bacteria at 37° C.
(§3) The serial dilutions method was used utilizing a MUELLER HINTON gelose medium at pH=7.4 and a bacterial inoculum of 10^4 units forming colonies. This inoculum was applied to the gelose by means of a multiple sowing device.
(§4) A scale of concentrations ranging from 100 to 0.05 μg/ml of compound to be studied was used starting from mother solutions titrating 1000 μg/ml, all the subsequent dilutions being effected in distilled water.

[2] = test system: Streptococcus faecalis 5855 IP; assay: In vitro antibacterial activity, MIC, Streptococcus faecalis 5855 IP; conditions: 37° C.
Experimental: as §1, §2, §3, §4

[3] = test system: Bacillus subtilis ATCC 6633; assay: In vitro antibacterial activity, MIC, Bacillus subtilis ATCC 6633
Experimental: as §1, §2, §3, §4

[4] = test system: Escherichia coli 54127 IP; assay: In vitro antibacterial activity, MIC, Escherichia coli 54127 IP
Experimental: as §1, §2, §3, §4

[5] = test system: Escherichia coli SOL RL 90; assay: In vitro antibacterial activity, MIC, Escherichia coli SOL RL 90
Experimental: as §1, §2, §3, §4

[6] = test system: Citrobacter freundii GN 346; assay: In vitro antibacterial activity, MIC, Citrobacter freundii GN 346
Experimental: as §1, §2, §3, §4

[7] = test system: Proteus vulgaris RL 99 bis; assay: In vitro antibacterial activity, MIC, Proteus vulgaris RL 99 bis
Experimental: as §1, §2, §3, §4

[8] = test system: Proteus mirabilis ATCC 21100; assay: In vitro antibacterial activity, MIC, Proteus mirabilis ATCC 21100
Experimental: as §1, §2, §3, §4

[9] = test system: Proteus morganii 1510; assay: In vitro antibacterial activity, MIC, Proteus morganii 1510
Experimental: as §1, §2, §3, §4

[10] = test system: Providencia stuartii 5158; assay: In vitro antibacterial activity, MIC, Providencia stuartii 5158
Experimental: as §1, §2, §3, §4

[11] = test system: Serratia liquefaciens 376; assay: In vitro antibacterial activity, MIC, Serratia liquefaciens 376; conditions: 37° C.
Experimental: as §1, §2, §3, §4

[12] = test system: Klebsiella pneumoniae ATCC 10031; assay: In vitro antibacterial activity, MIC, Klebsiella pneumoniae ATCC 10031
Experimental: as §1, §2, §3, §4

[13] = test system: Klebsiella pneumoniae R 30; assay: In vitro antibacterial activity, MIC, Klebsiella pneumoniae R 30
Experimental: as §1, §2, §3, §4

[14] = test system: Enterobacter cloacae P 99; assay: In vitro antibacterial activity, MIC, Enterobacter cloacae P 99
Experimental: as §1, §2, §3, §4

[15] = test system: Enterobacter hafniae RO 46; assay: In vitro antibacterial activity, MIC, Enterobacter hafniae RO 46
Experimental: as §1, §2, §3, §4

[16] = test system: Salmonella typhimurium A 222 IP; assay: In vitro antibacterial activity, MIC, Salmonella typhimurium A 222 IP
Experimental: as §1, §2, §3, §4

[17] = test system: Salmonella typhi ATCC 6539; assay: In vitro antibacterial activity, MIC, Salmonella typhi ATCC 6539
Experimental: as §1, §2, §3, §4

[18] = test system: Bordetella bronchiseptica ATCC 4617; assay: In vitro antibacterial activity, MIC, Bordetella bronchiseptica ATCC 4617
Experimental: as §1, §2, §3, §4

[19] = test system: Pseudomonas aeruginosa 8203; assay: In vitro antibacterial activity, MIC, Pseudomonas aeruginosa 8203; conditions: 37° C.
Experimental: as §1, §2, §3, §4

[20] = test system: Acinetobacter calcoaceticus C 1733; assay: In vitro antibacterial activity, MIC, Acinetobacter calcoaceticus C 1733
Experimental: as §1, §2, §3, §4

[21] = test system: Shigella sonnei R 018; assay: In vitro antibacterial activity, MIC, Shigella sonnei R 018; conditions: R018, 37° C., pH=7.4, inoculum 10^4
Experimental: as §1, §2, §3, §4

[22] = Enterococcus faecalis, pH=7.4, inoculum 10^4, read-out: MIC
[23] = pH=7.4, inoculum 10^4, read-out: MIC
[24] = Klebsiella pneumoniae, ATCC10031
[25] = Salmonella enterica, TYPHIMURIUM
[26] = ATCC4617, 37° C., pH=7.4, inoculum 10^4, read-out: MIC
[27] = C1733, 37° C., pH=7.4, inoculum 10^4, read-out: MIC
[28] = RL99BIS, Proteus vulgaris RL 99 bis, 37° C., pH=7.4, inoculum 10^4, read-out: MIC
[29] = Morganella morganii, Proteus morganii 1510, 37° C., pH=7.4, inoculum 10^4, read-out: MIC

`CCn1cc(C(=O)O)c(=O)c2cc(C=NOC)sc21` (single isomer, unassigned) [Compound H, 4,7-Dihydro-7-ethyl-2-methoxyiminomethyl-4-oxo-thieno[2,3-b]pyridine-5-carboxylic acid, anti-isomer] showed an MIC [1] of over 50 µg/mL, an MIC ([2]; pH=7.4, inoculum 10^4) of over 100 µg/mL and an MIC ([3]; Bacillus subtilis ATCC 6633, 37° C., pH=7.4, inoculum 10^4) of 0.8 µg/mL (≈ 2.85 µM). The MIC ([4]; Escherichia coli 54127 IP, 37° C., pH=7.4, inoculum 10^4) was 1.56 µg/mL (≈ 5.57 µM), the MIC ([5]; Escherichia coli SOL RL 90, 37° C., pH=7.4, inoculum 10^4) was 6.25 µg/mL (≈ 22.3 µM) and the MIC ([6]; Citrobacter freundii GN 346, 37° C., pH=7.4, inoculum 10^4) was 6.25 µg/mL (≈ 22.3 µM). For the same compound, the MIC ([7]; Proteus vulgaris RL 99 bis, 37° C., pH=7.4, inoculum 10^4) was 1.56 µg/mL (≈ 5.57 µM), the MIC ([8]; Proteus mirabilis ATCC 21100, 37° C., pH=7.4, inoculum 10^4) was 0.8 µg/mL (≈ 2.85 µM) and the MIC ([9]; Proteus morganii 1510, 37° C., pH=7.4, inoculum 10^4) was 0.8 µg/mL (≈ 2.85 µM). It also gave an MIC ([10]; Providencia stuartii 5158, 37° C., pH=7.4, inoculum 10^4) of 6.25 µg/mL (≈ 22.3 µM), an MIC ([11]; pH=7.4, inoculum 10^4) of over 25 µg/mL and an MIC ([12]; Klebsiella pneumoniae ATCC 10031, 37° C., pH=7.4, inoculum 10^4) of 0.4 µg/mL (≈ 1.43 µM). It also gave an MIC ([13]; Klebsiella pneumoniae R 30, 37° C., pH=7.4, inoculum 10^4) of 6.25 µg/mL (≈ 22.3 µM), an MIC ([14]; Enterobacter cloacae P 99, 37° C., pH=7.4, inoculum 10^4) of 3.12 µg/mL (≈ 11.1 µM) and an MIC ([15]; Enterobacter hafniae RO 46, 37° C., pH=7.4, inoculum 10^4) of 3.12 µg/mL (≈ 11.1 µM). The MIC ([16]; Salmonella typhimurium A 222 IP, 37° C., pH=7.4, inoculum 10^4) was 12.5 µg/mL (≈ 44.6 µM), the MIC ([17]; Salmonella typhi ATCC 6539, 37° C., pH=7.4, inoculum 10^4) was 25 µg/mL (≈ 89.2 µM) and the MIC ([18]; 37° C., pH=7.4, inoculum 10^4) was over 25 µg/mL. It also gave an MIC ([19]; pH=7.4, inoculum 10^4) of over 25 µg/mL and an MIC ([20]; 37° C., pH=7.4, inoculum 10^4) of over 25 µg/mL.

Compound `CCn1cc(C(=O)O)c(=O)c2cc(C=NO)sc21` [Compound A, 4,7-Dihydro-7-ethyl-2-hydroxyiminomethyl-4-oxo-thieno[2,3-b]pyridine-5-carboxylic acid] has an MIC ([1]; read-out: MIC) of 25 µg/mL (≈ 93.9 µM), an MIC [2, 22] of over 100 µg/mL and an MIC ([4]; Escherichia coli, 54127IP) of 3.12 µg/mL (≈ 11.7 µM). It also gave an MIC ([5]; Escherichia coli, SOLRL90) of 6.25 µg/mL (≈ 23.5 µM), an MIC ([6]; Citrobacter freundii, GN346) of 6.25 µg/mL (≈ 23.5 µM) and an MIC ([7]; Proteus vulgaris, RL99BIS) of 1.56 µg/mL (≈ 5.86 µM). It also gave an MIC ([8]; Proteus mirabilis, ATCC21100) of 1.56 µg/mL (≈ 5.86 µM), an MIC ([9]; Morganella morganii, 1510) of 1.56 µg/mL (≈ 5.86 µM) and an MIC ([10]; Providencia stuartii, 5158) of 6.25 µg/mL (≈ 23.5 µM). For the same compound, the MIC [11, 23] was 100 µg/mL (≈ 376 µM), the MIC [12, 24] was 1.56 µg/mL (≈ 5.86 µM) and the MIC ([13]; Klebsiella pneumoniae, R30) was 6.25 µg/mL (≈ 23.5 µM). It also gave an MIC ([14]; Enterobacter cloacae, P99) of 6.25 µg/mL (≈ 23.5 µM), an MIC ([15]; Hafnia alvei, RO46) of 1.56 µg/mL (≈ 5.86 µM) and an MIC [21] of 1.56 µg/mL (≈ 5.86 µM). For the same compound, the MIC [16, 25] was 6.25 µg/mL (≈ 23.5 µM), the MIC ([17]; Salmonella enterica) was 6.25 µg/mL (≈ 23.5 µM) and the MIC [18, 26] was over 100 µg/mL. It also gave an MIC [19, 23] of 50 µg/mL (≈ 188 µM) and an MIC [20, 27] of over 100 µg/mL.

Work on `CCn1cc(C(=O)O)c(=O)c2cc(/C=N/O)sc21` [Compound B, 4,7-Dihydro-7-ethyl-2-hydroxyiminomethyl-4-oxo-thieno[2,3-b]pyridine-5-carboxylic acid, anti-isomer] yielded an MIC ([1]; read-out: MIC) of 12.5 µg/mL (≈ 46.9 µM), an MIC [2, 22] of over 100 µg/mL and an MIC ([3]; Bacillus subtilis, ATCC6633) of 6.25 µg/mL (≈ 23.5 µM). It also gave an MIC ([4]; Escherichia coli, 54127IP) of 3.12 µg/mL (≈ 11.7 µM), an MIC ([5]; Escherichia coli, SOLRL90) of 3.12 µg/mL (≈ 11.7 µM) and an MIC ([6]; Citrobacter freundii, GN346) of 3.12 µg/mL (≈ 11.7 µM). For the same compound, the MIC [7, 28] was 0.8 µg/mL (≈ 3 µM), the MIC ([8]; Proteus mirabilis, ATCC21100) was 1.56 µg/mL (≈ 5.86 µM) and the MIC [9, 29] was 0.4 µg/mL (≈ 1.5 µM). It also gave an MIC ([10]; Providencia stuartii, 5158) of 6.25 µg/mL (≈ 23.5 µM), an MIC [11, 23] of 50 µg/mL (≈ 188 µM) and an MIC [12, 24] of 1.56 µg/mL (≈ 5.86 µM). The MIC ([13]; Klebsiella pneumoniae, R30) was 6.25 µg/mL (≈ 23.5 µM), the MIC ([14]; Enterobacter cloacae, P99) was 6.25 µg/mL (≈ 23.5 µM) and the MIC ([15]; Hafnia alvei, RO46) was 3.12 µg/mL (≈ 11.7 µM). For the same compound, the MIC [21] was 0.8 µg/mL (≈ 3 µM), the MIC [16, 25] was 3.12 µg/mL (≈ 11.7 µM) and the MIC ([17]; Salmonella enterica) was 6.25 µg/mL (≈ 23.5 µM). The MIC [18, 26] was over 100 µg/mL, the MIC [19, 23] was 100 µg/mL (≈ 376 µM) and the MIC [20, 27] was over 100 µg/mL.

Compound `CCn1cc(C(=O)O)c(=O)c2cc(/C=N\O)sc21` [Compound C, 4,7-Dihydro-7-ethyl-2-hydroxyiminomethyl-4-oxo-thieno[2,3-b]pyridine-5-carboxylic acid, syn-isomer] has an MIC ([1]; read-out: MIC) of 12.5 µg/mL (≈ 46.9 µM), an MIC [2, 22] of over 100 µg/mL and an MIC ([3]; Bacillus subtilis, ATCC6633) of 6.25 µg/mL (≈ 23.5 µM). The MIC ([4]; Escherichia coli 54127 IP, 37° C., pH=7.4, inoculum 10^4, read-out: MIC) was 12.5 µg/mL (≈ 46.9 µM), the MIC ([5]; Escherichia coli, SOLRL90) was 3.12 µg/mL (≈ 11.7 µM) and the MIC ([6]; Citrobacter freundii, GN346) was 3.12 µg/mL (≈ 11.7 µM). For the same compound, the MIC [7, 28] was 12.5 µg/mL (≈ 46.9 µM), the MIC ([8]; ATCC21100, Proteus mirabilis ATCC 21100, 37° C., pH=7.4, inoculum 10^4, read-out: MIC) was 12.5 µg/mL (≈ 46.9 µM) and the MIC [9, 29] was 0.4 µg/mL (≈ 1.5 µM). The MIC ([10]; Providencia stuartii 5158, 37° C., pH=7.4, inoculum 10^4, read-out: MIC) was 12.5 µg/mL (≈ 46.9 µM), the MIC [11, 23] was 50 µg/mL (≈ 188 µM) and the MIC ([12]; ATCC10031, Klebsiella pneumoniae ATCC 10031, 37° C., pH=7.4, inoculum 10^4, read-out: MIC) was 12.5 µg/mL (≈ 46.9 µM). The MIC ([13]; Klebsiella pneumoniae, R30) was 6.25 µg/mL (≈ 23.5 µM), the MIC ([14]; Enterobacter cloacae, P99) was 3.12 µg/mL (≈ 11.7 µM) and the MIC ([15]; Hafnia alvei, RO46, Enterobacter hafniae RO 46, 37° C., pH=7.4, inoculum 10^4, read-out: MIC) was 12.5 µg/mL (≈ 46.9 µM). It also gave an MIC [21] of 0.8 µg/mL (≈ 3 µM), an MIC [16, 25] of 3.12 µg/mL (≈ 11.7 µM) and an MIC ([17]; Salmonella enterica) of 3.12 µg/mL (≈ 11.7 µM). The MIC [18, 26] was over 100 µg/mL, the MIC [19, 23] was over 100 µg/mL and the MIC [20, 27] was over 100 µg/mL.
